Broadly, the IC50 is the midpoint of a concentration-inhibition curve. As usually defined, the bioavailability is the share of a dose that reaches the circulation, judged against a reference dose that is usually intravenous. What is called EC50 is the concentration at which the effect is half-maximal. What is called half-life is how long it takes for the measured level to halve. The term Kp denotes tissue or fluid exposure divided by exposure in the circulation. As usually defined, the fraction unbound is the share of the substance not bound to proteins or other matrix.

Data set [1] relates to Mus musculus. Kind of data set: Decrease in lymphocyte count in mouse acute lymphopenia model at 1 mg/kg, po after 24 hrs by flow cytometry relative to base line. It counts as functional. More on the design: scale not given: the % may be the effect or the level left. On the technique in general: A flow cytometer gives signals particle by particle.
The nature of data set [2]: Stability of the compound assessed as glutathione adduct formation. It counts as physicochemical.
The target in the next data set is Cytochrome P450 2D6 (Homo sapiens, UniProt P10635). The data set can be described thus: Inhibition of CYP2D6. It counts as ADME.
A short description of data set [3]: Oral bioavailability in mouse. In kind it is ADME, organism-based. Particulars: in vivo.
Data set [4] addresses Sphingosine 1-phosphate receptor 1 (Homo sapiens, UniProt P21453). The data set can be described thus: Agonist activity against S1P1 receptor by cell based FRET assay. It counts as functional.
Data set [5] addresses Sphingosine 1-phosphate receptor 3 (Homo sapiens, UniProt Q99500). The data set can be described thus: Agonist activity against S1P3 receptor by cell based FRET assay. It counts as functional.
The subject of data set [6] is Rattus norvegicus. Kind of data set: Antiinflammatory activity in rat assessed as decrease in lymphocyte count at 1 mg/kg, po qd for 7 days relative to base line. In kind it is functional. More on the design: scale not given: the % may be the effect or the level left.
Another data set addresses T1, Cytochrome P450 1A2 (Homo sapiens, UniProt P05177).
T1 sequence (P05177 whole entry): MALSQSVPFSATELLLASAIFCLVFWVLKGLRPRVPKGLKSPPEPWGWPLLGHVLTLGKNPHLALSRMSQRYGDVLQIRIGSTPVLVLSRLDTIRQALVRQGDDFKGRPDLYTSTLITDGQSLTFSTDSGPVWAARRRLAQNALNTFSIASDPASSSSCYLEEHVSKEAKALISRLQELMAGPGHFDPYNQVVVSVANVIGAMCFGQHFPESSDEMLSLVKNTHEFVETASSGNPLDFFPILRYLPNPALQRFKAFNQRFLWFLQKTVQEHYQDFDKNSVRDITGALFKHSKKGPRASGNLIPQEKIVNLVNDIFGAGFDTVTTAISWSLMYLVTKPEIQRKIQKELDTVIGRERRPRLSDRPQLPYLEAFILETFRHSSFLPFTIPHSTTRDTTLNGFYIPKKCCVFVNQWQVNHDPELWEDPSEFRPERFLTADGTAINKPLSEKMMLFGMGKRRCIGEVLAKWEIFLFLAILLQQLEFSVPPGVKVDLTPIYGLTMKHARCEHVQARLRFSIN
The data set can be described thus: Inhibition of CYP1A2. In kind it is ADME.

The next data set concerns the target Cytochrome P450 2C19 (Homo sapiens, UniProt P33261). The data set can be described thus: Inhibition of CYP2C19. It counts as ADME.
Data set [7] is described as follows: Half life in mouse. It counts as ADME, organism-based. The conditions noted are these: in vivo.
For a further data set, the target named is Cytochrome P450 2C9 (Homo sapiens, UniProt P11712). Kind of data set: Inhibition of CYP2C9. It counts as ADME.
Data set [8] can be described thus: Ratio of drug level in brain to blood in C57BL/6 mouse at 2 mg/kg, ip after 1 hr. More on the design: dose 2 mg/kg, route intraperitoneal. It counts as ADME, organism-based.
The species named for data set [9] is Rattus norvegicus. Kind of data set: Decrease in lymphocyte count in rat after 60 hrs. It counts as functional, organism-based.
Data set [10] in a line: Ratio of drug level in brain to blood in C57BL/6 mouse at 2 mg/kg, ip after 4 hrs. It counts as ADME, organism-based. The arrangement: dose 2 mg/kg, route intraperitoneal.
Data set [11] is described as follows: Oral bioavailability in Sprague-Dawley rat at 2 mg/kg. In kind it is ADME, organism-based. The conditions noted are these: in vivo.
The test system of data set [12] is Rattus norvegicus. The data set can be described thus: Antiinflammatory activity in rat assessed as decrease in lymphocyte count at 1 mg/kg, po qd for 7 days measured after 3 days of last post dose relative to control. More on the design: scale not given: the % may be the effect or the level left. It counts as functional.
The species named for data set [13] is Rattus norvegicus. Kind of data set: Decrease in lymphocyte count in rat. It counts as functional, organism-based.
For another data set, the target named is Cytochrome P450 3A4 (Homo sapiens, UniProt P08684). The data set can be described thus: Inhibition of CYP3A4. It counts as ADME.
A short description of data set [14]: Half life in Sprague-Dawley rat at 1 mg/kg, iv and 2 mg/kg, po. In kind it is ADME, organism-based. The conditions noted are these: in vivo.
Data set [15] in a line: Percentage unbound in human plasma. It counts as ADME, cell-free.
The species entered for the next data set is Homo sapiens. The data set can be described thus: Selectivity ratio of EC50 for S1P3 receptor to EC50 for S1P1 receptor.
Data set [16] concerns Mus musculus. The data set can be described thus: Decrease in lymphocyte count in mouse acute lymphopenia model at 1 mg/kg, po after 4 hrs by flow cytometry relative to base line. It counts as functional. The arrangement: scale not given: the % may be the effect or the level left.

Each structure is given as a SMILES string. Converted amounts (≈) assume the structure as drawn. The source made the active and inactive calls. No cut-off for these calls is given here.

Cytochrome P450 2C19, sequence (P33261 whole entry): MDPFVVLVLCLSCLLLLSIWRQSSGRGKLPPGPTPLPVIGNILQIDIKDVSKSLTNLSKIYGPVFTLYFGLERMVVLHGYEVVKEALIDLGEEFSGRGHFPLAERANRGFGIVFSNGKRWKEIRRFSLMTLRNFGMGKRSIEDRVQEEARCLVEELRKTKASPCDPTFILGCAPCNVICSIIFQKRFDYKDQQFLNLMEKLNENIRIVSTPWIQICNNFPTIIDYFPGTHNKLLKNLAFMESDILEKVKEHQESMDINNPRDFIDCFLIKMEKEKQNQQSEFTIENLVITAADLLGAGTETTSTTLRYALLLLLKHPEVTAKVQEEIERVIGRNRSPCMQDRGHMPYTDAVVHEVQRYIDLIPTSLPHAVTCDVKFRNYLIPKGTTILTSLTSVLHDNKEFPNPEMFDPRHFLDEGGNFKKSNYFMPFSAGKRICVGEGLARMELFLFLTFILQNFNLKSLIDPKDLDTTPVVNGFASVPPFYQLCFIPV
Sphingosine 1-phosphate receptor 1, sequence (P21453 whole entry): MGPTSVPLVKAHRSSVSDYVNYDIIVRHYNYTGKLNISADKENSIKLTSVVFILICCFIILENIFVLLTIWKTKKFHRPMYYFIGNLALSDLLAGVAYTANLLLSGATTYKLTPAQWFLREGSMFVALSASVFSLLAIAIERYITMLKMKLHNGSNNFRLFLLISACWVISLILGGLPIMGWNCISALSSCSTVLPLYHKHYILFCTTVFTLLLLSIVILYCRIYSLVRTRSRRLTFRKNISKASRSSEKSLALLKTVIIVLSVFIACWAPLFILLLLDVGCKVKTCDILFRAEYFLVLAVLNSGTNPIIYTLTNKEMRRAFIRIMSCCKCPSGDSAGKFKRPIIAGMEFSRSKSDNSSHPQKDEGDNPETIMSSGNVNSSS
Sphingosine 1-phosphate receptor 3, sequence (Q99500 whole entry): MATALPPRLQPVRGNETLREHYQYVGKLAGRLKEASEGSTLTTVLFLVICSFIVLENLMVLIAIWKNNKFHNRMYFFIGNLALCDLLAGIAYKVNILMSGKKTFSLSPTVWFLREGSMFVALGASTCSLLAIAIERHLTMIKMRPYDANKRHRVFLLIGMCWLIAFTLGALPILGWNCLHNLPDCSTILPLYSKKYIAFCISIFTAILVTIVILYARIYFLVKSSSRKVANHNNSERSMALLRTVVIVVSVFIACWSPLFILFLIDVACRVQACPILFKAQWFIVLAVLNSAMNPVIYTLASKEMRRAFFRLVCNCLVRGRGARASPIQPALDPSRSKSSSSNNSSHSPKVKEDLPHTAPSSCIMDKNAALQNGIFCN
Cytochrome P450 3A4, sequence (P08684 whole entry): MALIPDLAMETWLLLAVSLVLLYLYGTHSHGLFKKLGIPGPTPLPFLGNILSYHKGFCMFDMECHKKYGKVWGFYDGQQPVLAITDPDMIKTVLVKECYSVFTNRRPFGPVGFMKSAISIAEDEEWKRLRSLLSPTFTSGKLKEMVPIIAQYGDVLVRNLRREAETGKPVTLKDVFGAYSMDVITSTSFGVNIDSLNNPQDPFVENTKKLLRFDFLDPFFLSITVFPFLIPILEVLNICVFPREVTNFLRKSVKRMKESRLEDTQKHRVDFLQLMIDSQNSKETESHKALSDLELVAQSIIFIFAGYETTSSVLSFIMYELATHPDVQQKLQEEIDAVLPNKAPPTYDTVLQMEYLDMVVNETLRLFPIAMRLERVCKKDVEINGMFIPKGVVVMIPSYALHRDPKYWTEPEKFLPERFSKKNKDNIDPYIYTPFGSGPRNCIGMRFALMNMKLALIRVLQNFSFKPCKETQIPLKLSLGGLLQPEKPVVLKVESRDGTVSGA
Cytochrome P450 2D6, sequence (P10635 whole entry): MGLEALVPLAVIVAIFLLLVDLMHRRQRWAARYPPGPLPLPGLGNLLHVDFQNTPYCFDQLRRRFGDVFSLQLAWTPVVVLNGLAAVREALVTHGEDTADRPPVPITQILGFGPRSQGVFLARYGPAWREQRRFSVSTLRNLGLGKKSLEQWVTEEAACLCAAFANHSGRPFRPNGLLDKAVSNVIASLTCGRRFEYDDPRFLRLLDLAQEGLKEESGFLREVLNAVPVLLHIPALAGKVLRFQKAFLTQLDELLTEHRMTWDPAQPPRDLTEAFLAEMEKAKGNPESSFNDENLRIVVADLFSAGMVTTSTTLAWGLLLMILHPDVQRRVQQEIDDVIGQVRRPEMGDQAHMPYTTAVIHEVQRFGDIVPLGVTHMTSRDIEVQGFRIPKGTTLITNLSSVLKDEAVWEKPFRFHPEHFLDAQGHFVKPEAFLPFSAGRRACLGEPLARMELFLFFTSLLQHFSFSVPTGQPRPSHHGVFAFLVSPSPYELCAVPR
Cytochrome P450 2C9, sequence (P11712 whole entry): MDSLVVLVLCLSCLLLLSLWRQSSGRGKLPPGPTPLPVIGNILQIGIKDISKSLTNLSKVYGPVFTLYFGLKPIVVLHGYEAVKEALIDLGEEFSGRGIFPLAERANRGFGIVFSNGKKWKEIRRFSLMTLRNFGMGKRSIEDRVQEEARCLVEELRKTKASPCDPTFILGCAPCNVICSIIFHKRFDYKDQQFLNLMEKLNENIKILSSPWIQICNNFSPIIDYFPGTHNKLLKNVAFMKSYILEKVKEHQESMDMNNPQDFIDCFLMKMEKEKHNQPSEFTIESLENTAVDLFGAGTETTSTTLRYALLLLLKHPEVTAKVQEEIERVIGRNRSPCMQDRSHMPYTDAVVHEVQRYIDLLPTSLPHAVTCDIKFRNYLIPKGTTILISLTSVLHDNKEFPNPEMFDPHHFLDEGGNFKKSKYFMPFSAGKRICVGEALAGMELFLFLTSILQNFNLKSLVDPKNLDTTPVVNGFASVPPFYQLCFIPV

For the compound `CCc1c(CCN2CCC(C(=O)O)CC2)cccc1-c1nsc(-c2ccc(CC(C)C)c(C#N)c2)n1`, the Activity is 72% in the data set with Mus musculus [1]; 20% in the data set with Rattus norvegicus [6]; 70% in the data set on Rattus norvegicus [12]; “Dose-dependent effect” in the data set listed under Rattus norvegicus [13]; 23% in the data set on Mus musculus [16]. Also, the Stability entry in [2] is “Stable”. In addition, the 50% inhibitory concentration (IC50) against Cytochrome P450 2D6 was over 10 µM; against Cytochrome P450 1A2, over 10 µM; against Cytochrome P450 2C19 it was over 10 µM; against Cytochrome P450 2C9, over 10 µM; in the data set listed under Rattus norvegicus [13], 0.012 µg/mL (≈ 0.0239 µM); at Cytochrome P450 3A4, over 10 µM. Besides, the bioavailability came out at 45% in data set [3] and 50% in [11]. The results for the EC50 in data set [4] and in data set [5] were 0.000794 µM and over 3.16 µM, respectively. In addition, the half-life in data set [7] was 5.3 h; in data set [14], 6.2 h. The Kp at 1 h in data set [8] is 0.23. In addition, the result in the data set filed under Rattus norvegicus [9] was inactive. Also, the Kp at 4 h in data set [10] stood at 0.65. The fraction unbound in data set [15] is 0.0064. The Ratio EC50 in the data set filed under Homo sapiens is over 1000.

Source of the values: ChEMBL document CHEMBL2057096, “Discovery of novel 1,2,4-thiadiazole derivatives as potent, orally active agonists of sphingosine 1-phosphate receptor subtype 1 (S1P(1))” (J Med Chem, 2012).
